pEC50, pIC50: −log10 of the molar value.

The test system of the first assay is TLR2 induced IL-6 in peripheral blood mononuclear cells (PBMCs). The assay is described as follows: PBMC TLR2 Induced IL-6 Assay. The note with it: Homo sapiens, PBMC, 5 h, 10 μg/ml lipoteichoic acid for 5 hours, IL-6 by ELISA, values marked * are EC50, read-out: Cell EC50 (values marked *). In kind it is cell-based. The method, then:
PBMC TLR2 Induced IL-6 Assay Peripheral blood mononuclear cells (PBMCs) were isolated from human blood containing the anti-coagulant EDTA (2.5 mM) by centrifugation over a FICOLL® gradient. […] At the end of the culture, plates were centrifuged at 1800 rpm for 10 minutes to pellet the cells. Supernatants were harvested and analyzed for IL-6 levels by ELISA (BD Biosciences, San Jose, Calif.).
For orientation: In an ELISA, binding on a coated surface is turned into a signal by an enzyme label.
For orientation: pEC50 means −log10 of the EC50, conventionally taken in molar units. Regarding `Cc1nc(Nc2cc(NC(C)C)c(C(=O)NC[C@@H](F)C(C)(C)O)cn2)ccc1C#N` [Example 63], the pEC50 was 7.04. On the same count and under the same terms, next, `CC(C)(O)[C@H](F)CNC(=O)c1cnc(Nc2ncc(C#N)cc2Cl)cc1NCC(F)(F)F` [Example 65]: 6.81. Still for that read-out and setting: the figure for `CCNc1cc(Nc2ncc(C#N)cc2F)ncc1C(=O)NC[C@@H](F)C(C)(C)O` [Example 66] is 7.20; for `CC(=O)N[C@H]1CC[C@H](NC(=O)c2cnc(Nc3ncc(C#N)cc3Cl)cc2NC2CC2)CC1` [Example 67] it is 6.34. As for `CCn1ncc(Nc2cc(NC(C)C)c(C(=O)NC[C@@H](F)C(C)(C)O)cn2)n1` [Example 72], the negative-log EC50 (pEC50) was 6.61. Still for that read-out and setting: next, `CC(C)(O)c1cnc(Nc2cc(Nc3ncc(C#N)cc3Cl)ncc2C(=O)NC[C@@H](F)C(C)(C)O)s1` [Example 75]: 7.27; `CC(C)(O)[C@H](F)CNC(=O)c1cnc(Nc2ncc(C#N)cc2Cl)cc1NC1CCCC1O` (some centres unmarked) [Example 76]: 6.97; `CC(=O)N[C@H]1CC[C@H](NC(=O)c2cnc(Nc3ncc(C#N)cc3Cl)cc2NC2CCOCC2)CC1` [Example 77]: 6.67.

On to `CC(C)(O)[C@H](F)CNC(=O)c1cnc(Nc2ncc(C#N)cc2Cl)cc1NC1CCOCC1F` (some centres unmarked) [Example 79], for which the pEC50 is 6.31. Same read-out and setting: next, `CC(C)Nc1cc(Nc2ncc(F)cc2F)ncc1C(=O)NC[C@@H](F)C(C)(C)O` [Example 80]: 6.47; `CC(C)(O)[C@H](F)CNC(=O)c1cnc(Nc2ccc(Cl)cn2)cc1NC1CC1` [Example 81]: 7.02.

For the compound `CC(=O)N[C@H]1CC[C@H](NC(=O)c2cnc(Nc3ncc(C#N)cc3F)cc2NC2CC2)CC1` [Example 83], the negative-log EC50 (pEC50) is 6.11.

With `CC(C)(O)[C@H](F)CNC(=O)c1cnc(Nc2ncc(C#N)cn2)cc1NC1CCC(F)C1` (some centres unmarked) [Example 86], the pEC50 is 6.46. Same read-out and setting: next, `CC(C)(O)[C@H](F)CNC(=O)c1cnc(Nc2ncc(F)cc2F)cc1NC1CC1` [Example 89]: 6.31; `CC(C)(O)[C@H](F)CNC(=O)c1cnc(Nc2ncc(C#N)cc2Cl)cc1NC12CC(C1)C2` [Example 90]: 6.61; `C[C@@H](CO)Nc1cc(Nc2ncc(C#N)cc2F)ncc1C(=O)NC[C@@H](F)C(C)(C)O` [Example 91]: 6.75.

Consider `CC(C)Nc1cc(Nc2ncc(C#N)cc2Cl)ncc1C(=O)N[C@H]1CC[C@H](O)CC1` [Example 92], for which the negative logarithm of the EC50 (pEC50) is 6.57. The same measure, in the same setting: next, `COC(=O)Cn1cc(Cl)c(Nc2cc(NC(C)C)c(C(=O)NC[C@@H](F)C(C)(C)O)cn2)n1` [Example 93]: 6.40. Consider `CC(C)(O)[C@H](F)CNC(=O)c1cnc(Nc2ncncc2F)cc1NC1CC1` [Example 94], for which the pEC50 was 6.41.

Turning to `CC(C)(O)[C@H](F)CNC(=O)c1cnc(Nc2ncncc2Cl)cc1NC1CCOCC1` [Example 95], the negative logarithm of the EC50 (pEC50) is 6.30. `C[C@H](CO)Nc1cc(Nc2ncc(F)cc2F)ncc1C(=O)NC[C@@H](F)C(C)(C)O` [Example 100]: the negative logarithm of the EC50 (pEC50) is 6.51. Still for that read-out and setting: the figure for `C[C@@H](CO)Nc1cc(Nc2ncc(C#N)cn2)ncc1C(=O)NC[C@@H](F)C(C)(C)O` [Example 101] is 6.42; for `CC(C)(F)CNc1cc(Nc2ncc(C#N)cc2Cl)ncc1C(=O)NC1CCC(C(C)(C)O)CC1` (centres unmarked) [Example 103] it is 6.71.

As to `CC(C)(O)[C@H](F)CNC(=O)c1cnc(Nc2ncc(C#N)cc2Cl)cc1NC1CCCCC1O` (some centres unmarked) [Example 104], the pEC50 was 6.70. Consider `CC(C)(O)[C@H](F)CNC(=O)c1cnc(Nc2ncncc2Cl)cc1NC1CC1` [Example 105], for which the negative logarithm of the EC50 (pEC50) is 6.47. Still for that read-out and setting: next, `CC(=O)N[C@H]1CC[C@H](NC(=O)c2cnc(Nc3ncncc3Cl)cc2NC(C)C)CC1` [Example 106]: 6.36. The same measure, in the same setting: next, `CC(C)(O)[C@H](F)CNC(=O)c1cnc(Nc2ncc(C#N)cn2)cc1N[C@H]1CCC[C@H]1F` [Example 107]: 6.12; `CC(C)(O)[C@H](F)CNC(=O)c1cnc(Nc2ncc(F)cc2F)cc1NC1CCOCC1F` (some centres unmarked) [Example 108]: 6.43; `CC(C)Nc1cc(Nc2ncc(O)cn2)ncc1C(=O)NC[C@@H](F)C(C)(C)O` [Example 111]: 6.19. The same measure, in the same setting: the figure for `COc1cnc(Nc2cc(NC3CCC3)c(C(=O)NC[C@@H](F)C(C)(C)O)cn2)nc1` [Example 112] is 7.06. `Cc1cnc(Nc2cc(NC(C)C)c(C(=O)NC[C@@H](F)C(C)(C)O)cn2)nc1` [Example 113]: the pEC50 was 6.25.

As for `CC(C)(O)[C@H](F)CNC(=O)c1cnc(Nc2ncc(C#N)cc2F)cc1NC1CCC(F)C1` (some centres unmarked) [Example 114], the pEC50 is 7.25. Same read-out and setting: next, `CC(C)Nc1cc(Nc2ncc(C#N)cc2F)ncc1C(=O)N[C@H]1CC[C@H](C(=O)NC(C)C)CC1` [Example 116]: 6.89; `CCC(O)(CC)[C@H](F)CNC(=O)c1cnc(Nc2ncc(C#N)cn2)cc1NC(C)C` [Example 117]: 6.69. Still for that read-out and setting: next, `CC(C)Nc1cc(Nc2ncc(C#N)cc2F)ncc1C(=O)N[C@H]1CC[C@H](C(=O)NC2CC2)CC1` [Example 118]: 6.76. On the same count and under the same terms, the figure for `CC(C)(O)[C@H](F)CNC(=O)c1cnc(Nc2ncc(C#N)cc2F)cc1NC12CC3CC(CC(C3)C1)C2` [Example 119] is 6.13; for `CC(C)Nc1cc(Nc2ncc(C#N)cc2F)ncc1C(=O)NCCc1ccc(S(N)(=O)=O)cc1` [Example 121] it is 7.31. Take `CC(C)(O)[C@H](F)CNC(=O)c1cnc(Nc2ncc(C#N)cc2F)cc1Nc1cccc(CO)c1` [Example 122]: the pEC50 is 7.25. Same read-out and setting: the figure for `CC(C)(O)[C@H](F)CNC(=O)c1cnc(Nc2ncc(Cl)cc2F)cc1NC1CC1` [Example 124] is 7.01; for `CC(C)(O)[C@H](F)CNC(=O)c1cnc(Nc2ncc(C#N)cc2F)cc1Nc1cccc(O)c1` [Example 125] it is 7.07; for `CC(C)(O)[C@H](F)CNC(=O)c1cnc(Nc2ncc(C#N)cc2F)cc1NCC(F)(F)C(C)(C)O` [Example 126] it is 7.08. The same measure, in the same setting: the figure for `CC(C)Nc1cc(Nc2ncc(C#N)cc2F)ncc1C(=O)NCCCOC(C)(C)C` [Example 127] is 6.60; for `CC(C)(O)[C@H](F)CNC(=O)c1cnc(Nc2ncc(C#N)cc2F)cc1Nc1cccc(S(N)(=O)=O)c1` [Example 128] it is 6.65; for `COc1cccc(Nc2cc(Nc3ncc(C#N)cc3F)ncc2C(=O)NC[C@@H](F)C(C)(C)O)c1` [Example 130] it is 7.05. The same measure, in the same setting: the figure for `CC(C)Nc1cc(Nc2ccnc(N)n2)ncc1C(=O)NC[C@@H](F)C(C)(C)O` [Example 131] is 6.86; for `CC(C)Nc1cc(Nc2ncncc2N)ncc1C(=O)NC[C@@H](F)C(C)(C)O` [Example 132] it is 6.06; for `CC(C)(O)[C@H](F)CNC(=O)c1cnc(Nc2ncc(C#N)cc2F)cc1NC12CCC(O)(CC1)C2` [Example 133] it is 7.07.

With `CC(C)(O)[C@H](F)CNC(=O)c1cnc(Nc2ncc(C#N)cc2F)cc1Nc1cccc(NS(C)(=O)=O)c1` [Example 134], the negative-log EC50 (pEC50) is 6.69. Same read-out and setting: the figure for `CC(C)(O)[C@H](F)CNC(=O)c1cnc(Nc2ncc(C#N)cc2F)cc1Nc1cccc(C(N)=O)c1` [Example 135] is 6.89. As to `CC(C)Nc1cc(Nc2ncc(C#N)c(N)n2)ncc1C(=O)NC[C@@H](F)C(C)(C)O` [Example 136], the negative logarithm of the EC50 (pEC50) is 7.20. Same read-out and setting: next, `CC(C)Nc1cc(Nc2ncc(C#N)cc2F)ncc1C(=O)N[C@H]1CC[C@H](C(C)(C)O)CC1` [Example 137]: 7.14; `CCCNc1cc(Nc2ncc(C#N)cc2Cl)ncc1C(=O)NC[C@@H](F)C(C)(C)O` [Example 138]: 6.97; `CCCNc1cc(Nc2ncc(C#N)cc2F)ncc1C(=O)NC[C@@H](F)C(C)(C)O` [Example 139]: 6.94. The same measure, in the same setting: next, `CC(C)CCNc1cc(Nc2ncc(C#N)cc2Cl)ncc1C(=O)NC[C@@H](F)C(C)(C)O` [Example 140]: 6.62; `CC(C)CCNc1cc(Nc2ncc(C#N)cc2F)ncc1C(=O)NC[C@@H](F)C(C)(C)O` [Example 141]: 6.39. The same measure, in the same setting: the figure for `CC(C)(O)[C@H](F)CNC(=O)c1cnc(Nc2ncc(C#N)cc2F)cc1Nc1ccc(C(N)=O)cc1` [Example 142] is 7.03; for `CC(C)(O)[C@H](F)CNC(=O)c1cnc(Nc2ncc(C#N)cc2Cl)cc1Nc1cccc(C(N)=O)c1` [Example 143] it is 6.90.

The assay is the same for the next values; noted with them: Homo sapiens, PBMC, 5 h, 10 μg/ml lipoteichoic acid for 5 hours, IL-6 by ELISA, values without asterisk, read-out: Cell IC50.
The pIC50 is the IC50 on a negative log10 scale, so that one unit is a factor of ten. As for `CNC(=O)[C@H]1CC[C@H](NC(=O)c2cnc(Nc3ncc(C#N)cc3Cl)cc2NC2CC2)CC1` [Example 60], the pIC50 is 7.28. Still for that read-out and setting: next, `CNC(=O)[C@H]1CC[C@H](NC(=O)c2cnc(Nc3ncc(C#N)cc3F)cc2NC2CCOCC2)CC1` [Example 61]: 6.74; `CC(=O)N[C@H](C)CCNC(=O)c1cnc(Nc2ncc(C#N)cc2F)cc1NC(C)C` [Example 64]: 6.35. Still for that read-out and setting: next, `CC(C)(O)[C@H](F)CNC(=O)c1cnc(Nc2ncncc2Cl)cc1NC1CCCOC1` (some centres unmarked) [Example 96]: 5.81; `CC(C)(O)[C@H](F)CNC(=O)c1cnc(Nc2ncc(C#N)cc2F)cc1NC1CCCOC1` (some centres unmarked) [Example 97]: 6.38; `CCC(C)Nc1cc(Nc2ncc(C#N)cn2)ncc1C(=O)NC[C@@H](F)C(C)(C)O` (some centres unmarked) [Example 99]: 6.32.

Still in this assay, the particulars now being: human PBMC, 10 μg/ml lipoteichoic acid for 5 hours, IL-6 by ELISA; values marked * are EC50; read-out: Cell EC50 (values marked *).
Regarding `Cc1cnc(Nc2cc(NC(C)C)c(C(=O)NC[C@@H](F)C(C)(C)O)cn2)c(F)c1` [Example 129], the pEC50 is 6.40.

Staying with this assay, now noted: human PBMC, 10 μg/ml lipoteichoic acid for 5 hours, IL-6 by ELISA; values without asterisk; read-out: Cell IC50.
Take `CC(C)(O)[C@H](F)CNC(=O)c1cnc(Nc2ncc(C#N)cc2F)cc1NC1CCCOC1` (some centres unmarked) [Example 98]: the negative logarithm of the IC50 (pIC50) is 6.16.

The values above are taken from US10023562B2, “Heteroaryl substituted pyridyl compounds useful as kinase modulators” (BRISTOL-MYERS SQUIBB COMPANY, priority 2012, dated 2018).
